Assay results reported in ChEMBL document CHEMBL3244265, “Preparation and biological actions of some symmetrically N,N-disubstituted dopamines” (J Med Chem, 1978).
Active and inactive are the calls of the source. No cut-off for these calls is given here.

What was measured:
Rattus norvegicus [1] = assay: Induction of hyperactivity in Sprague-Dawley rat at 3.13 to 50 ug administered into caudate putamen; assay type: functional, organism-based
Felis catus [2] = assay: Inhibition of 2 Hz electric current-induced cardioaccelerator nerve stimulation in iv dosed cat by cardiotachometer analysis; assay type: functional
Felis catus [3] = assay: Inhibition of 10 Hz electric current-induced cardioaccelerator nerve stimulation in iv dosed cat by cardiotachometer analysis; assay type: functional, organism-based
Columba livia [4] = assay: Antagonism of apomorphine-induced pecking in im dosed pigeon treated 15 mins prior to apomorphine challenge; assay type: functional
Columba livia [5] = assay: Induction of pecking in im dosed pigeon; assay type: functional, organism-based
Felis catus [6] = assay: Inhibition of 2 Hz electric current-induced cardioaccelerator nerve stimulation in iv dosed cat by cardiotachometer analysis in presence of 0.2 mg/kg, iv haloperidol; assay type: functional, organism-based; set-up: dose 0.2 mg/kg; details: at 0.2 mg/kg
Rattus norvegicus [7] = assay: Induction of stereotyped behaviour in intrastriatally dosed Sprague-Dawley rat at 3.13 to 50 ug administered into nucleus accumbens; assay type: functional, organism-based
Rattus norvegicus [8] = assay: Induction of stereotyped behaviour in Sprague-Dawley rat at 2.5 to 20 mg/kg, sc; assay type: functional, organism-based
Rattus norvegicus [9] = assay: Induction of circling behaviour in Sprague-Dawley rat at 2.5 to 20 mg/kg, sc; assay type: functional, organism-based
Rattus norvegicus [10] = assay: Induction of hyperactivity in Sprague-Dawley rat at 3.13 to 50 ug administered into nucleus accumbens; assay type: functional, organism-based
Felis catus [11] = organism: Felis catus; assay: Agonist activity at dopamine receptor in cat right atrium assessed as inhibition of cardiaccelerator nerve stimulation rate by cardiotachometer analysis; assay type: tissue-based; details: Cardiac atrium
Canis familiaris [12] = organism: Canis familiaris; assay: Inhibition of cardioaccelerator nerve stimulation in dog in presence of phentolamine; assay type: functional, organism-based; details: Canis lupus familiaris
Rattus norvegicus [13] = assay: Induction of hyperactivity in Sprague-Dawley rat at 2.5 to 20 mg/kg, sc; assay type: functional, organism-based
Canis familiaris [14] = assay: Induction of emesis in sc dosed dog; assay type: functional; details: Canis lupus familiaris
Felis catus [15] = assay: Inhibition of 2 Hz electric current-induced cardioaccelerator nerve stimulation in iv dosed cat by cardiotachometer analysis in presence of 2 mg/kg, iv phentolamine; assay type: functional, organism-based; set-up: dose 2 mg/kg; details: at 2 mg/kg
Felis catus [16] = assay: Effect on heart rate in iv dosed cat; assay type: functional, organism-based
Rattus norvegicus [17] = assay: Induction of stereotyped behaviour in intrastriatally dosed Sprague-Dawley rat at 3.13 to 50 ug administered into caudate putamen; assay type: functional, organism-based
Canis familiaris [18] = assay: Toxicity in dog up to 2 mg/kg, sc; assay type: organism-based, Canis lupus familiaris; set-up: dose 2 mg/kg, route subcutaneous; details: in vivo
Canis familiaris [19] = assay: Antagonism of apomorphine-induced emesis in sc dosed dog treated 15 mins prior to apomorphine challenge; assay type: functional, organism-based; details: Canis lupus familiaris
Felis catus [20] = assay: Inhibition of 2 Hz electric current-induced cardioaccelerator nerve stimulation in cat at 10 umol/kg, iv by cardiotachometer analysis; assay type: functional, organism-based
Felis catus [21] = organism: Felis catus; assay: Agonist activity at dopamine receptor in cat right atrium assessed as inhibition of cardiaccelerator nerve stimulation rate at 10 umol/L by cardiotachometer analysis; assay type: tissue-based; details: Cardiac atrium
Felis catus [22] = assay: Hypotensive activity in iv dosed cat; assay type: functional, organism-based

Structure (SMILES)	Activity (Rattus norvegicus [1])	inhibition (Felis catus [3])	Activity (Columba livia [5])	Activity (Rattus norvegicus [7])	Activity (Rattus norvegicus [8])	Activity (Rattus norvegicus [9])	Activity (Rattus norvegicus [10])	Activity (Rattus norvegicus [13])	Activity (Felis catus [16])	Activity (Rattus norvegicus [17])	other results
CN(C)CCc1ccc(O)c(O)c1	inactive	inactive	inactive	inactive	inactive	inactive	inactive	inactive	inactive	inactive	ED50 (Felis catus [2]): 0.024 µmol/kg; ED50 (Columba livia [4]): 9.7 µmol/kg; inhibition (Felis catus [6]): inactive; ED50 (Felis catus [11]): 70 nM; inhibition (Canis familiaris [12]): inactive; ED50 (Canis familiaris [14]): inactive; inhibition (Felis catus [15]): inactive; Activity (Canis familiaris [18]): Non-toxic; inhibition (Canis familiaris [19]): inactive
CCCCN(CCCC)CCc1ccc(O)c(O)c1	inactive	inactive	inactive	inactive	inactive	inactive	inactive	inactive	inactive	inactive	inhibition (Felis catus [20]): inactive; inhibition (Felis catus [21]): inactive; Activity (Felis catus [22]): inactive
